Assay results reported in patent US20180273482A1, “COMPOSITIONS AND METHODS FOR INCREASING, OR PREVENTING OR REVERSING LOSS OF, SKIN PIGMENTATION IN A MAMMALIAN SUBJECT” (THE TRUSTEES OF THE UNIVERSITY OF PENNSYLVANIA, priority 2015, published 2018).

Test system: C57BL/6 mice ear skin
Assay: Topical G-1 treatment of mouse ear skin
Type: in vivo
Details: 2% G-1 topical, 3 weeks
Method: 2×10^5 melanocytes were seeded uniformly on 6-well tissue culture plates. […] For tissue melanin assays, tissue was weighed prior to boiling in 1M NaOH for 20 minutes.
2% (w/v) G-1 was prepared in DMSO. 20 μL of this solution was applied daily to the right ear, with vehicle only applied to the left ear, of 4-week-old C57BL/6 mice. These studies were performed without inclusion/exclusion criteria, randomization, or blinding. Based on a two-fold anticipated effect, this experiment was performed with 3 biological replicates.

Question: Which results are given for `CC(=O)c1ccc2c(c1)[C@@H]1C=CC[C@@H]1[C@H](c1cc3c(cc1Br)OCO3)N2` (racemic) [G-1, rel-1-[4-(6-bromo-1,3-benzodioxol-5-yl)-3aR,4S,5,9bS-tetrahydro-3H-cyclopenta[c]quinolin-8-yl]-ethanone]?
Answer: pigment in treated ears compared to vehicle: increased pigment; melanin content of treated tissue vs controls (right ear, whole ear tissue melanin assay): 1.6 fold
